# Data published in US5128448A, “CCK analogs with appetite regulating activity” (Hoffman-La Roche Inc., priority 1990, dated 1992).
# Non-standard residues stand in square brackets, D forms with d. Residues, ends and D or L forms follow the SMILES beside them. sY = N[C@@H](Cc1ccc(OS(=O)(=O)O)cc1)C(=O)O; 2Nal = N[C@@H](Cc1ccc2ccccc2c1)C(=O)O; Cha = N[C@@H](CC1CCCCC1)C(=O)O
# Target: Human neutral metalloendopeptidase (Homo sapiens, UniProt P08473)
# Experiment: Degradation by human neutral metalloendopeptidase (HPLC)
# Assay type: in vitro ADME
# Conditions: for % Degradation by Heights: 37° C., tris-HCl pH 7.6; for No. of Peaks: HPLC
# Experimental: Human neutral metalloendopeptidase (0.01 mg) and 5 nmol of peptide were incubated in […] tris-HCl buffer (pH 7.6) and at 37° C. for varying periods of time. The degradation of the peptide was monitored by analytical HPLC on a 5 micron Adsorbosphere-ODS column with 0-50% CH3 CN gradient in 0.1N potassium phosphate buffer, pH 3.0, with UV detection at 210 nm. Rates are based on presumed production of Asp-Tyr(SO3 H)-Met-Gly for CCK-8 and Ac-Tyr(SO3 H)-Met-Gly for the compound of example 73.
# Human neutral metalloendopeptidase, sequence (P08473 whole entry): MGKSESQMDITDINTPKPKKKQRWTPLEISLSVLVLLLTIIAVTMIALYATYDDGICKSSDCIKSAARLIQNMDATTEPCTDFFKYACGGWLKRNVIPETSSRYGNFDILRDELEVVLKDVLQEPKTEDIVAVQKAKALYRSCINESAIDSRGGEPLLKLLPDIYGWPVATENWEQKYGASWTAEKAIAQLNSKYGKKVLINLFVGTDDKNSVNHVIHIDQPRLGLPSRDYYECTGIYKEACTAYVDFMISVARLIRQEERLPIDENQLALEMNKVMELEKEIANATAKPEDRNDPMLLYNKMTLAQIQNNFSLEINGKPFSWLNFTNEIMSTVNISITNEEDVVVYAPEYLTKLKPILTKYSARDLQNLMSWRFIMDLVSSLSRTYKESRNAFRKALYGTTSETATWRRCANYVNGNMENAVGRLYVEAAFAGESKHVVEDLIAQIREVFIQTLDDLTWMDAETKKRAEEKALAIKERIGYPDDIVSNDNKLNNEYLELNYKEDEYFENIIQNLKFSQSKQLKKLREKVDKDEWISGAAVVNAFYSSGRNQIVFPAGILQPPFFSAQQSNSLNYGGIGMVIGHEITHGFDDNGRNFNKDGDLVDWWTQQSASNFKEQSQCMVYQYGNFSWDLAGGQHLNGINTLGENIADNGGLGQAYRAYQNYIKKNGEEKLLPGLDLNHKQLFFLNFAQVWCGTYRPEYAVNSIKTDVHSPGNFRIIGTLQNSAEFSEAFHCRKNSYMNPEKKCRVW
SMILES,% Degradation by Heights (time of incubation 0 min),% Degradation by Heights (time of incubation 15 min),% Degradation by Heights (time of incubation 30 min),% Degradation by Heights (time of incubation 60 min),No. of Peaks (time of incubation 60 min),% Degradation by Heights (time of incubation 120 min),% Degradation by Heights (time of incubation 240 min),"No. of Peaks (time of incubation 240 min, one peak detected and one peak that coeluted with substrate)"
"CSCC[C@H](NC(=O)[C@H](Cc1ccc(OS(=O)(=O)O)cc1)NC(=O)[C@@H](N)CC(=O)O)C(=O)NCC(=O)N[C@@H](Cc1c[nH]c2ccccc12)C(=O)N[C@@H](CCSC)C(=O)N[C@@H](CC(=O)O)C(=O)N[C@@H](Cc1ccccc1)C(N)=O [CCK-8, Asp^26 -Tyr-(SO3 H)^27 -Met^28 -Gly^29 -Trp^30 -Met^31 -Asp^32 -Phe^33 -NH2]",0%,6.2%,33.2%,69.7%,4,–,–,–
"CSCC[C@H](NC(=O)[C@H](Cc1ccc(OS(=O)(=O)O)cc1)NC(C)=O)C(=O)NCC(=O)N[C@@H](Cc1ccc2ccccc2c1)C(=O)N[C@@H](CCSC)C(=O)N[C@@H](CC(=O)O)C(=O)N[C@@H](CC1CCCCC1)C(N)=O [Example 73, Ac-Tyr(SO3 H)-Met-Gly-(2)Nal-Met-Asp-Cyclohexylalanine-NH2] (Ac-[sY]MG[2Nal]MD[Cha]-NH2)",0%,–,–,10.0%,–,27.0%,56.4%,2
